Key:
ASK2 [1] = molecular target: T1, ASK2 (Homo sapiens (Human), UniProt O95382); assay: ASK2 biochemical assay (AlphaScreen technology, MKK7 phosphorylation); conditions: 150 μM ATP, 400 nM MKK7, 2 nM ASK2
Source text: ASK1 and ASK2 biochemical activities were also quantified using AlphaScreen technology which measures the degree of phosphorylation of a protein substrate (MKK7). AlphaScreen technology is based on the binding of a substrate to two types of beads, acceptor and donor. Binding to one bead is through the tag of the substrate protein. Binding of the second bead is through phosphospecific binding of antibody to the phosphosite of the substrate. This forms a sandwich, with the acceptor and donor beads in close proximity. When the donor beads are excited by light in the 680 nm range, a singlet oxygen is released and causes emission of light from the acceptor in the 620 nm range which can be detected using a suitable plate reader.
The phosphorylation site on MKK7 (Ser271/Thr275) is then recognised by a phosphospecific antibody. The phosphospecific antibody is bound to the AlphaScreen acceptor beads through a Protein-A interaction. Phosphorylation of MKK7 by ASK1 or ASK2 subsequently facilitates the bringing together of the donor and acceptor beads into close proximity whereupon the transfer of the singlet oxygen leads to the generation of the AlphaScreen signal.
The assay was configured to run using the following conditions (final concentrations): 150 μM ATP; 400 nM MKK7; 0.8 nM ASK1 and 2 nM ASK2.
100 nL of test compound (starting concentration 6 μM, 11 concentrations with 3 fold serial dilutions) in 100% DMSO was added to low volume 384 well plates. 2.5 μl of ASK1 or ASK2 was added to each well except in the control wells to which 2.5 μl buffer was added. 2.5 μl of MKK7 solution was added to all wells. The plate was incubated for 60 minutes at room temperature. Protein-A acceptor beads and phospho-specific antibody were incubated for 30 minutes and then 2.5 μl of Protein-A acceptor beads/phospho-specific antibody mix (2.5 μg/ml acceptor beads final concentration and 1/800 antibody final dilution) was added to each well. […] The plate was incubated for a further 60 minutes at room temperature, following which the plate was read on a Perkin Elmer Enspire plate reader. […]

ASK2 [2] = molecular target: T1, ASK2; assay: ASK2 biochemical assay (IMAP technology); conditions: 25 nM hASK2
Source text: (§1) IMAP® technology provides a homogeneous assay applicable to a wide variety of kinases, phosphatases, and phosphodiesterases without regard for substrate peptide sequence. The assay is a simple mix-and-read procedure allowing accurate determination of enzyme activity. Based on the specific, high-affinity interaction of phospho groups with trivalent metal-containing nanoparticles (beads), IMAP is a generic, non-antibody-based platform to assess kinase, phosphatase, and phosphodiesterase activity. An enzyme reaction is performed using fluorescently labeled substrate. Addition of the IMAP Binding System stops the enzyme reaction and initiates binding of the beads to phosphorylated substrates. Binding of the substrate to the beads, which correlates to enzyme activity, can be detected using either FP or TR-FRET as a readout.
(§2) KIT IMAP FP, Cat. No. R8127; Reaction Buffer-Tween (5× conc.), Molecular Devices, Cat. No. R7436; Diluted 1:5 with H2O and containing DTT (1 mM from 1M stock); Progressive Binding Buffer (PBB) A (5× conc.), Molecular Devices, Cat. No. R7282; Progressive Binding Reagent (PB Reagent), Molecular Devices, Cat. No. R7284; Enzyme Solution (containing 2× Ask1 in Reaction buffer); Substrate Solution (containing 2× peptide substrate in Reaction buffer, and 2×150 μM ATP in Reaction buffer); Bead Buffer (Progressive Binding Buffer A diluted 1:5 with H2O); Bead Solution (Bead Buffer containing 1:200 Progressive Binding Reagent (2×))
100 nL of test compound in 100% DMSO was added to 384-well plates. […] The plates were then incubated for 2 h at room temperature after which time the plates were read on a Perkin Elmer EnVision plate reader.
Calculation of IC50 data, curves and QC analysis was made by using Excel tools and GraphPadPrism software, v. […] Calculated results: Calc 1: mP value for FP measurement=1000*(S−G*P)/(S+G*P) where S=<detector 2 or FP-BodipyTAMRA_Ex531-Em579-optimized(1) channel 2>P=<detector 1 or FP-BodipyTAMRA_Ex531-Em579-optimized(1) channel 1>G=G-factor. […] Top constrain is used only if top values are not correctly calculated. […]

hASK1 = hASK1 (Homo sapiens (Human), UniProt Q99683); assay: ASK1 biochemical assay (IMAP technology); conditions: 150 μM ATP, 6 nM hASK1
hASK1, sequence (Q99683 whole entry): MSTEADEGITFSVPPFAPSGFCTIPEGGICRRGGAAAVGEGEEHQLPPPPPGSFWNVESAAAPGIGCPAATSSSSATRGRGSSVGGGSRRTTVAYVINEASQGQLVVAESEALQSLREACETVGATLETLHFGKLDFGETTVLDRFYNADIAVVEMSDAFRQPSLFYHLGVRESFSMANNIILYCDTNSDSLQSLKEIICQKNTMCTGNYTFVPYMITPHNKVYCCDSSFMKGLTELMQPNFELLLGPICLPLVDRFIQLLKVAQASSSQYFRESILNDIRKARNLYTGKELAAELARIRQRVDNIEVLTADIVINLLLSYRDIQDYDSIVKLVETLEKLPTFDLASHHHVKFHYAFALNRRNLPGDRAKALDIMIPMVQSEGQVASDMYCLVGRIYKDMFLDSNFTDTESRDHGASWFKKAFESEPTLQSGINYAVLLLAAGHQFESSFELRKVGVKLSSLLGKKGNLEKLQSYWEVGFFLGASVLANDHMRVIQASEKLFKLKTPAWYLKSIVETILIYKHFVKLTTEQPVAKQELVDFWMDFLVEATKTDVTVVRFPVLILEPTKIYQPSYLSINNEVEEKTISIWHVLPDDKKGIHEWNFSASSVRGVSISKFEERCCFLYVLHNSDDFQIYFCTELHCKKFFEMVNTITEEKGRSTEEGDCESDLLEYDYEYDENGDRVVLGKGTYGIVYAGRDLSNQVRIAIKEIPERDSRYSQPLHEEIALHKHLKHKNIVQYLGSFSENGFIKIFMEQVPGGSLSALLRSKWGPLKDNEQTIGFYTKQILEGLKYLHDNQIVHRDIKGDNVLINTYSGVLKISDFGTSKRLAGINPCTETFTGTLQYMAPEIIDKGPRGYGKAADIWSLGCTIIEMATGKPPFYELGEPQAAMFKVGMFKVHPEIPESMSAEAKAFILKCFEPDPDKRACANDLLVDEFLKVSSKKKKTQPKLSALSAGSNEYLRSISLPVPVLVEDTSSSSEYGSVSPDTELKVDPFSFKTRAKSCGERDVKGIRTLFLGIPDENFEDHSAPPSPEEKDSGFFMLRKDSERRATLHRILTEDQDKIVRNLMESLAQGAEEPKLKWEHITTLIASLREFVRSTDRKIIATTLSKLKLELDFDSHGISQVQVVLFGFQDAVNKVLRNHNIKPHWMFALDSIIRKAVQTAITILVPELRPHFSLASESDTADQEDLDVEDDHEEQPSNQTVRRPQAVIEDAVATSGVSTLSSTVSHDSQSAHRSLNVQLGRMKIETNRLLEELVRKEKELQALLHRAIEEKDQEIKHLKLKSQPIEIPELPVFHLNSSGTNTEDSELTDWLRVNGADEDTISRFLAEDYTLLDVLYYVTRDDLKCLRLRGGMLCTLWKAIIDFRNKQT
Source text: as §1
Apoptosis Signal-regulating Kinase (ASK1), also known as MAP3K5, is a member of the mitogen-activated protein kinase kinase kinase (MAP3K) family of kinases. It activates the Jnk and p38 pathways through the MAP2Ks MKK4/7 and MKK3/6 (respectively). This ASK1 IMAP assay uses the following IMAP peptide: RP7140-T2 (5TAMRA-GTFRAAIRRLAARRR-OH, SEQ ID NO: 1). The assay has been configured to run at Km for ATP ([…]) so that it will be sensitive to ATP-competitive inhibitors. The final assay conditions are […], 1 mM DTT, 200 nM peptide and 6 nM ASK1 (total protein). The binding reagent is made up in 100% A at a final dilution of 1:200.
as §2
100 nL of test compound in 100% DMSO was added to 384-well plates. For a dose response experiment a 1 in 4 dilution of compound (25 μM top final concentration) was used. 3 μL of hASK1 (6 nM), hASK2 (25 nM) or rASK1 (15 nM) was added to each well except in the control well to which 3 μL buffer was added. 3 μL of substrate solution was added to each well and the plates were incubated for 4 h at room temperature. After which time 6 μL of IMAP™ Bead Solution (Progressive Binding Buffer A+PB Reagent; final dilution 1:100) was added to each well and spun for 1 minute at 1000 rpm. The plates were then incubated for 2 h at room temperature after which time the plates were read on a Perkin Elmer EnVision plate reader.
Calculation of IC50 data, curves and QC analysis was made by using Excel tools and GraphPadPrism software, v. 5.03. Briefly, individual concentration-effect curves are generated by plotting the logarithm of the tested concentration of tested compounds (X) vs. corresponding percent inhibition values (Y) using least squares (ordinary) fit. Up to ¼ points from high/low controls are allowed to be excluded, but only if values are >Avg.±1*SD. Fitting equation used for IC50 calculation=log(inhibitor) vs. response−Variable slope (four parameters). Calculated results: Calc 1: mP value for FP measurement=1000*(S−G*P)/(S+G*P) where S=<detector 2 or FP-BodipyTAMRA_Ex531-Em579-optimized(1) channel 2>P=<detector 1 or FP-BodipyTAMRA_Ex531-Em579-optimized(1) channel 1>G=G-factor. Gain=100. Top constrain is used only if top values are not correctly calculated.
Minimum constrained if less than −30% I or greater than 30% I. Maximum constrained if less than 70% I or greater than 130% I. Z′-Factor Target>0.4. Hill Slope range 0.5 to 5.

T1 sequence (O95382 whole entry): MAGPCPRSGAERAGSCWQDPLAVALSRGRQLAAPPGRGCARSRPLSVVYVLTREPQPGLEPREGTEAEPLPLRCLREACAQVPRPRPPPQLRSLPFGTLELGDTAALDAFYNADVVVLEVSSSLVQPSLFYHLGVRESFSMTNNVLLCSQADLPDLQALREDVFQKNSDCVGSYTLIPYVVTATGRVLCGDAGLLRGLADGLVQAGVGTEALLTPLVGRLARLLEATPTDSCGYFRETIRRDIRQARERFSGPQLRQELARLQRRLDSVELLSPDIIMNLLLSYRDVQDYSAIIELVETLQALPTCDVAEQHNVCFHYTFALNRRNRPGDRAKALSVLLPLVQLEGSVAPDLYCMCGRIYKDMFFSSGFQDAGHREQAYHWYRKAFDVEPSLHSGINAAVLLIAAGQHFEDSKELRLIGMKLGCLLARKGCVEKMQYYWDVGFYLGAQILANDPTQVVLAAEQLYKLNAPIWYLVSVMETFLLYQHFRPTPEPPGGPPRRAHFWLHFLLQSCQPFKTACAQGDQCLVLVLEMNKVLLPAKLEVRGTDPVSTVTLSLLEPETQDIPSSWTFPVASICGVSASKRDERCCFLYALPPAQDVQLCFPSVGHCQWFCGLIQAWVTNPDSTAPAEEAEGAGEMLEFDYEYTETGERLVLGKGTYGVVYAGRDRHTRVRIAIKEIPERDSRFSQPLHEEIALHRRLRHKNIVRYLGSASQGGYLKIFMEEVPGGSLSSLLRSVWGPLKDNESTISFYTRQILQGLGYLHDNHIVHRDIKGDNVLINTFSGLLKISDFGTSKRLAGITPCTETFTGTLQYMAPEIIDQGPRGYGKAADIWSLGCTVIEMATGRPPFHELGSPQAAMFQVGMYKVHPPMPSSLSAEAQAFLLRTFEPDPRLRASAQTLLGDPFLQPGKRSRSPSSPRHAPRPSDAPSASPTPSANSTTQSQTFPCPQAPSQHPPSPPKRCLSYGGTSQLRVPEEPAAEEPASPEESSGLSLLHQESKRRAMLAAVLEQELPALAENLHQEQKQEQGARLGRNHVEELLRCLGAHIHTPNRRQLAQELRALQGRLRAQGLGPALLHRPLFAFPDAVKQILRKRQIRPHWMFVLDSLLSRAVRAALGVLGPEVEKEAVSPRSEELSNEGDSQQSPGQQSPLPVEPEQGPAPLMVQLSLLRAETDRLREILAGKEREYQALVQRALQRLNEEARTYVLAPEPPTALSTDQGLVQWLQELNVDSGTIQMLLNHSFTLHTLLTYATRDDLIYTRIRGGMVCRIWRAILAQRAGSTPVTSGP

| Compound | Inhibition (pIC50) ASK2 (ASK2 [1]) | Inhibition (pIC50) ASK2 (ASK2 [2]) | Inhibition (pIC50) ASK1 (hASK1) |
| --- | --- | --- | --- |
| Nc1cc(C(=O)NC2CCN(c3ncnc4[nH]cc(Cl)c34)CC2)ccn1 [Compound 4, 2-amino-N-[1-(5-chloro-7H-pyrrolo[2,3-d]pyrimidin-4-yl)-4-piperidyl]pyridine-4-carboxamide] | 8.2 | 8.19 | 8.46 |
| Cc1c[nH]c2ncnc(N3CCC(NC(=O)c4cc(N)ncc4Cl)CC3)c12 [Compound 3, 2-amino-5-chloro-N-[1-(5-methyl-7H-pyrrolo[2,3-d]pyrimidin-4-yl)-4-piperidyl]-pyridine-4-carboxamide] | 7.8 | – | 8.05/— |
| Cc1c[nH]c2ncnc(N3CCC(NC(=O)c4cc(N)ncc4F)CC3)c12 [Compound 1, 2-amino-5-fluoro-N-[1-(5-methyl-7H-pyrrolo[2,3-d]pyrimidin-4-yl)-4-piperidyl]pyridine-4-carboxamide] | 7.71 | 7.96 | 8.24 |
| Cc1cnc(N)cc1C(=O)NC1CCN(c2ncnc3[nH]cc(C)c23)CC1 [Compound 2, 2-amino-5-methyl-N-[1-(5-methyl-7H-pyrrolo[2,3-d]pyrimidin-4-yl)-4-piperidyl]pyridine-4-carboxamide] | – | 8.08 | 8.17 |

Other lines, results leading:

| Inhibition (pIC50) ASK2 (ASK2 [1]) | Inhibition (pIC50) ASK2 (ASK2 [2]) | Inhibition (pIC50) ASK1 (hASK1) | Compound |
| --- | --- | --- | --- |
| – | – | 8.98/— | Cc1c[nH]c2ncc(C#N)c(N3CCC(NC(=O)c4cc(N)ncc4F)CC3)c12 [Compound 6, 2-amino-N-[1-(5-cyano-3-methyl-1H-pyrrolo[2,3-b]pyridin-4-yl)-4-piperidyl]-5-fluoro-pyridine-4-carboxamide] |
| – | – | 8.24/— | Nc1cc(C(=O)NC2CCN(c3ccnc4[nH]cc(Cl)c34)CC2)c(F)cn1 [Compound 7, 2-amino-N-[1-(3-chloro-1H-pyrrolo[2,3-b]pyridin-4-yl)-4-piperidyl]-5-fluoro-pyridine-4-carboxamide] |
| – | – | 8.43/— | Nc1cc(C(=O)NC2CCN(c3ncnc4[nH]cc(Cl)c34)CC2)c(F)cn1 [Compound 5, 2-amino-N-[1-(5-chloro-7H-pyrrolo[2,3-d]pyrimidin-4-yl)-4-piperidyl]-5-fluoro-pyridine-4-carboxamide] |
